Measured values as given in publication PMC4211885 (PLoS ONE, 2014).
Entries after “also recorded” stand apart in the source; their conditions may differ.

Assays:
[1] = molecular target: T1, OA/TAMac receptor (Macrobrachium rosenbergii, UniProt D9U2B9); assay: Modulation of the transient calcium-dependent chloride current ICl-T in OA/TAMac-injected oocytes (voltage step protocol); type: cell-based; conditions: for Effect on ICl-T at lower concentration: 1 µM and 100 µM, 8 minute applications, n = 5 at each concentration; for Effect on ICl-T during prolonged application: 1 mM (high concentration), n = 4 oocytes
Source text: The fluctuations in holding current that we refer to as ID have often been referred to as the calcium-dependent chloride current. These currents are in fact complex and are known to contain multiple poorly defined components that arise from a number of unidentified potassium, chloride and mixed cationic channels, [47]. For this reason, we tested the effect of tyramine and octopamine on one of the better characterized components, the transient calcium-dependent chloride current that we refer to as ICl-T after. This current, which has been referred to as Iout, [54], ICl-2 [55] or ICl1-T [53], can be clearly isolated from ID using a specific pulse protocol (Fig. 6A). Furthermore, ICl-T is known to increase in response to inositol 1,4,5-triphosphate (IP3) injection, [55]. Modulation of this current therefore provides additional insight into how IP3 related pathways might be affected by transmitter application.
Figure 6 Differential modulation of a transient chloride current by tyramine (TA) and octopamine (OA). ICl-T is an endogenous calcium-dependent transient chloride current coupled to extra-celluar calcium influx. It is thought to arise from a single type of channel. […] (A) The voltage command protocol used to measure ICl-T is shown with an example current. The first step to +40 mV from the holding potential of −20 mV evokes no ICl-T and provides the baseline. The hyperpolarizing step to −140 mV induces calcium influx that causes ICl-T to appear during the second step to +40 mV [53]. The amplitude of ICl-T was measured as the difference between the first step and the peak of the transient current evoked by the second. (B) Measurements of ICl-T were taken every minute during the ID evoked by long applications of 1 mM TA and 1 mM OA. The vertical lines are the currents evoked by the voltage command pulse used to measure ICl-T (as shown in A). Their true amplitude was clipped from the image during figure preparation. Below the trace individual ICl-T transients are shown. Δ ICl-T is the difference in amplitude of these transients measured at different time points. The amplitude of ICl-T increases during continuous TA application and decreases during continuous OA application. There was a 38 minute washout period between the TA and OA applications. […]
ICl-T was measured under two-electrode voltage-clamp by hyperpolarizing the oocyte to −140 mV after a step to +40 mV and stepping back to +40 mV (Fig. 6A). […] ICl-T is measured instead of Icat because ICl-T is a pure chloride conductance that likely arises from one ion channel population while Icat is complex arising from more than one conductance.
We monitored ICl-T over the course of extended transmitter applications using the described pulse protocol. […]

[2] = molecular target: T1, OA/TAMac receptor; assay: Agonist-evoked direct-current (ID) in Xenopus oocytes injected with OA/TAMac cRNA, two-electrode voltage clamp; type: cell-based; conditions: for ID response amplitude (mean ± s.d.): 10 µM, 10 second focal application, OA/TAMac and CFTR co-injected, n = 11 oocytes; for EC50: voltage clamped at −60 mV, approximate, estimated graphically from plot, read-out: EC50 of transmitter evoked direct-current (ID), normalized I/Imax; for Spearman rank-order correlation (rS) between rise rate and peak amplitude of evoked ID: all responses of the concentration series of Figure 3C
Source text: We used Xenopus oocytes to express the prawn OA/TAMac receptor by injection of synthetic cRNA. The injection of foreign RNA into Xenopus oocytes typically induces the expression of multiple native chloride and potassium channels. Ligand evoked currents resulting from modulation of these channels have been used extensively in the characterization of heterologously expressed GPCRs. Oocytes are typically voltage clamped at a constant membrane potential around −60 mV and deviations in holding potential are measured. We refer to currents measured in this way as direct-currents (ID) (after) in order to distinguish them from the voltage-evoked transient current (ICl-T) described later.
Both flow rate and pulse duration were precisely controlled and comparisons were made relative to currents within single oocytes.
To characterize the dose dependence of ID, series of single transmitters were applied to different individual oocytes injected with OA/TAMac. Oocytes were voltage clamped at −60 mV and tyramine, (+/−)-octopamine, or dopamine were applied using 30 second perfusion-switched applications (see methods for more details).
Recordings were performed 1–3 days post-injection at room temperature (20–22°C). Currents were recorded under two-electrode voltage clamp using an Axoclamp 900a amplifier (Molecular Devices LLC, CA USA). A digidata 1440a analog to digital converter was used in conjunction with pCLAMP 10 software (Molecular Devices) for data acquisition and to generate voltage commands. For each step protocol or chemical application data were typically sampled at 5 KHz and filtered digitally at 1 KHz. For the duration of each experiment the current was also continuously sampled at 1 kHz using a separate minidigi 1A digitizer (Molecular Devices). Glass microelectrodes were pulled from filamented 1.2 mm thin wall borosilicate glass (World Precision Instruments, Sarasota, FL) using a Sutter Instruments P-97 puller. They were filled with 3 M KCl and had resistances of 0.8–2.0 MΩ. A silver chloride pellet immersed in 3 M KCl and connected to the bath via a 3% agar bridge made with 3 M KCl was used as the reference electrode.
Oocytes were continuously perfused at 1.5 mL/min either with ND 96 or test compounds dissolved in ND 96. Two types of application were used over the course of this study, a perfusion-switch or a focal application. In all cases solutions were delivered through a gravity fed system and switched using a computer controlled bank of pinch valves. Flow rate was regulated with a manual screw-type pinch valve.
For focal application a triple barrel pipette with three parallel independently switched channels was positioned about 1 mm from the surface of the oocyte, up-stream of a cross flow, at an approximate angle of 45 degrees (schematic shown in Fig. S8). Drugs were focally applied during continuous perfusion with ND 96.
In experiments where more than three drugs or concentrations were tested a precisely controlled 30 s perfusion-switch was used. Up to eight channels were connected to the bath via an 8-way manifold. There was an approximately 6–7 s delay for solutions to traverse the dead volume between the manifold and the bath.

[3] = 30 second perfusion-switched applications, −60 mV

T1 sequence (D9U2B9 entry or part of it): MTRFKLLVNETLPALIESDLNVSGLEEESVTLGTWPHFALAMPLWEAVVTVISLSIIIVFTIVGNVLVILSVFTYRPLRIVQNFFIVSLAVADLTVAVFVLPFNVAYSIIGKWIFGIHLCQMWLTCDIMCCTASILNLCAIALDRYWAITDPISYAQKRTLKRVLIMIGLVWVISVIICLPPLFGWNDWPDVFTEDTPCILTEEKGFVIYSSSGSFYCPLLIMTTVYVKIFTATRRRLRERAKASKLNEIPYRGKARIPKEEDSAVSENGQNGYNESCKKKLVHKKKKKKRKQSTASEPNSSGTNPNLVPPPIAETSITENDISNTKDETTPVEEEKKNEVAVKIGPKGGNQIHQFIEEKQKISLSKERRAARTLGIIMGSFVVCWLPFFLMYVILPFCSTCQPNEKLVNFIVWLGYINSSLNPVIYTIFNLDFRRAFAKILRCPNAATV

Row | Effect on ICl-T at lower concentration [1] | ID response amplitude (mean ± s.d.) ([2]; −60 mV) | EC50 ([2]; 30 second perfusion-switch) | Concentration at which evoked inward currents became visible/apparent [2, 3] | Concentration at which the response reached maximum amplitude [2, 3] | Spearman rank-order correlation (rS) between rise rate and peak amplitude of evoked ID [2] | Mean ID response amplitude in the agonist set ([2]; 50 µM, 30 second perfusion-switch, n = 6, standard deviation 32 nA) | Structure (SMILES) | Effect on ICl-T during prolonged application [1]
1 | increase | 229±152 nA | ~0.2 µM | around 0.1 µM | around 10 µM | 0.52 |  | NCCc1ccc(O)cc1 [tyramine] | reversibly increases; also recorded: increased
2 | no apparent effect | 75±55 nA | ~21 µM | around 1 µM |  | 0.93 | 119 nA | NCC(O)c1ccc(O)cc1 (racemic) [octopamine, (+/−)-octopamine] | reversibly decreases; also recorded: decreased
